In the supplement of paper PMC12698765:
Counter-ions that a name gives are not always drawn. ± gives the standard deviation of the averaged measurements.

Columns and labels:
[1] = system: 409B2 hiPSC (iCRISPR Cas9, FRMD7 editing); assay: cell survival relative to solvent control (fold (ratio to mock)); higher = more surviving cells
Method: (§1)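 Subset screen of 55 drugs tested at 5 concentrations around the effective screening dose, in 409B2 iCRISPR Cas9 hiPSCs editing FRMD7 with a ssDNA donor. Drugs were applied for 24 h. Viability was read by resazurin and editing outcomes by amplicon sequencing (HDR, NHEJ <2 bp microhomology, MMEJ ≥2 bp microhomology). Values are relative to solvent mock controls; two biological replicates.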

[2] = system: 409B2 hiPSC (iCRISPR Cas9, FRMD7 editing); assay: NHEJ-attributed indel frequency relative to solvent control (fold (ratio to mock)); higher = more NHEJ outcomes
Method: as §1

[3] = system: 409B2 hiPSC (iCRISPR Cas9, FRMD7 editing); assay: MMEJ-attributed deletion frequency relative to solvent control (fold (ratio to mock)); higher = more MMEJ outcomes
Method: as §1

[4] = system: 409B2 hiPSC (iCRISPR Cas9, FRMD7 editing); assay: HDR (precise edit) frequency relative to solvent control (fold (ratio to mock)); higher = more homology-directed repair outcomes
Method: as §1

SMILES	cell survival ([1]; 20 nM)	cell survival ([1]; 50 nM)	cell survival ([1]; 100 nM)	cell survival ([1]; 200 nM)	cell survival ([1]; 500 nM)	NHEJ-attributed indel frequency ([2]; 20 nM)	NHEJ-attributed indel frequency ([2]; 200 nM)	NHEJ-attributed indel frequency ([2]; 500 nM)	MMEJ-attributed deletion frequency ([3]; 200 nM)	MMEJ-attributed deletion frequency ([3]; 500 nM)	HDR ([4]; 200 nM)	HDR ([4]; 500 nM)	cell survival ([1]; 2000 nM)	cell survival ([1]; 5000 nM)	NHEJ-attributed indel frequency ([2]; 2000 nM)	NHEJ-attributed indel frequency ([2]; 5000 nM)	MMEJ-attributed deletion frequency ([3]; 2000 nM)	MMEJ-attributed deletion frequency ([3]; 5000 nM)	HDR ([4]; 2000 nM)	HDR ([4]; 5000 nM)	also measured
NS(=O)(=O)c1ccccc1 [Benzenesulfonamide] (in DMSO)	0.86	1.22	1.05	1.13	1.17	0.951 ± 0.029	0.995 ± 0.03	0.989 ± 0.029	0.912 ± 0.08	0.962 ± 0.038	1.1 ± 0.048	1.06 ± 0.046	–	–	–	–	–	–	–	–	NHEJ-attributed indel frequency ([2]; 50 nM): 0.974 ± 0.026; NHEJ-attributed indel frequency ([2]; 100 nM): 0.969 ± 0.028; MMEJ-attributed deletion frequency ([3]; 20 nM): 0.855 ± 0.14; MMEJ-attributed deletion frequency ([3]; 50 nM): 0.92339 ± 0.00028; MMEJ-attributed deletion frequency ([3]; 100 nM): 1.05 ± 0.23; HDR ([4]; 20 nM): 1.14 ± 0.063; HDR ([4]; 50 nM): 1.08 ± 0.053; HDR ([4]; 100 nM): 1.02 ± 0.038
CC(C)(c1ccc(O)cc1)c1ccc(O)cc1 [Bisphenol A] (in DMSO)	1.02	1.14	0.953	1.22	1.14	1 ± 0.011	1.015 ± 0.0024	1.02 ± 0.051	0.965 ± 0.066	1.01 ± 0.15	1.023 ± 0.0052	0.983 ± 0.05	–	–	–	–	–	–	–	–	NHEJ-attributed indel frequency ([2]; 50 nM): 1.01 ± 0.014; NHEJ-attributed indel frequency ([2]; 100 nM): 1.01 ± 0.045; MMEJ-attributed deletion frequency ([3]; 20 nM): 1.02 ± 0.062; MMEJ-attributed deletion frequency ([3]; 50 nM): 0.8949 ± 0.0088; MMEJ-attributed deletion frequency ([3]; 100 nM): 0.974 ± 0.23; HDR ([4]; 20 nM): 1.025 ± 0.0061; HDR ([4]; 50 nM): 1.01 ± 0.028; HDR ([4]; 100 nM): 1.07 ± 0.025
Nc1c(CC(=O)O)cccc1C(=O)c1ccc(Br)cc1 [Bromfenac Sodium] (in DMSO)	–	–	–	1.06	1.2	–	0.984 ± 0.026	0.957 ± 0.032	0.866 ± 0.12	0.944 ± 0.072	1.09 ± 0.065	1.09 ± 0.07	1.04	1.09	1.02 ± 0.022	0.975 ± 0.044	0.89 ± 0.033	0.976 ± 0.09	1.05 ± 0.025	1.11 ± 0.053	cell survival ([1]; 1000 nM): 0.983; NHEJ-attributed indel frequency ([2]; 1000 nM): 0.984 ± 0.016; MMEJ-attributed deletion frequency ([3]; 1000 nM): 0.811 ± 0.094; HDR ([4]; 1000 nM): 1.11 ± 0.058
N=C(NCCCCCCNC(=N)NC(=N)Nc1ccc(Cl)cc1)NC(=N)Nc1ccc(Cl)cc1 [Chlorhexidine HCl] (in DMSO)	–	–	–	1.04	1.24	–	0.973 ± 0.014	0.995 ± 0.021	0.966 ± 0.067	0.8989 ± 0.0017	1.06 ± 0.051	1.09 ± 0.038	1.03	0.0831	1.05 ± 0.043	0.6546 ± 0.0051	1.07 ± 0.082	0.946 ± 0.12	0.874 ± 0.023	0.294 ± 0.063	cell survival ([1]; 1000 nM): 1.02; NHEJ-attributed indel frequency ([2]; 1000 nM): 0.997 ± 0.011; MMEJ-attributed deletion frequency ([3]; 1000 nM): 0.994 ± 0.067; HDR ([4]; 1000 nM): 1 ± 0.044
Nc1ccn(C[C@@H](CO)OCP(=O)(O)O)c(=O)n1 [Cidofovir] (in H2O)	–	–	–	–	–	–	–	–	–	–	–	–	0.624	0.548	0.843 ± 0.058	0.835 ± 0.019	0.789 ± 0.08	0.881 ± 0.029	1.06 ± 0.083	0.9 ± 0.055	cell survival ([1]; 10000 nM): 0.333; cell survival ([1]; 20000 nM): 0.167; cell survival ([1]; 50000 nM): 0.863; NHEJ-attributed indel frequency ([2]; 10000 nM): 0.862 ± 0.049; NHEJ-attributed indel frequency ([2]; 20000 nM): 0.736 ± 0.051; NHEJ-attributed indel frequency ([2]; 50000 nM): 0.988; MMEJ-attributed deletion frequency ([3]; 10000 nM): 0.924 ± 0.35; MMEJ-attributed deletion frequency ([3]; 20000 nM): 0.727 ± 0.12; MMEJ-attributed deletion frequency ([3]; 50000 nM): 0.968; HDR ([4]; 10000 nM): 0.85 ± 0.081; HDR ([4]; 20000 nM): 0.574 ± 0.012; HDR ([4]; 50000 nM): 1.01
CC(C)/N=c1\cc2n(-c3ccc(Cl)cc3)c3ccccc3nc-2cc1Nc1ccc(Cl)cc1 [Clofazimine] (in DMSO)	–	–	–	0.955	1.06	–	1.01 ± 0.022	1.027 ± 0.004	1.07 ± 0.15	0.967 ± 0.077	0.942 ± 0.032	0.91 ± 0.019	0.597	0.252	1.028 ± 0.0037	0.974 ± 0.014	0.957 ± 0.097	0.791 ± 0.14	0.794 ± 0.029	0.772 ± 0.058	cell survival ([1]; 1000 nM): 0.752; NHEJ-attributed indel frequency ([2]; 1000 nM): 0.999 ± 0.017; MMEJ-attributed deletion frequency ([3]; 1000 nM): 0.949 ± 0.022; HDR ([4]; 1000 nM): 0.912 ± 0.042
CC(=O)O[C@]1(C(C)=O)CC[C@H]2[C@@H]3C=C(Cl)C4=CC(=O)[C@@H]5C[C@@H]5[C@]4(C)[C@H]3CC[C@@]21C [Cyproterone Acetate] (in DMSO)	0.984	1.23	1.12	1.09	1.23	0.962 ± 0.045	1.01 ± 0.014	0.964 ± 0.042	0.915 ± 0.022	0.999 ± 0.017	1.03 ± 0.013	1.14 ± 0.058	–	–	–	–	–	–	–	–	NHEJ-attributed indel frequency ([2]; 50 nM): 0.9767 ± 0.0039; NHEJ-attributed indel frequency ([2]; 100 nM): 0.9929 ± 0.0094; MMEJ-attributed deletion frequency ([3]; 20 nM): 1.18 ± 0.11; MMEJ-attributed deletion frequency ([3]; 50 nM): 0.986 ± 0.03; MMEJ-attributed deletion frequency ([3]; 100 nM): 0.9921 ± 0.0047; HDR ([4]; 20 nM): 1.1 ± 0.048; HDR ([4]; 50 nM): 1.119 ± 0.007; HDR ([4]; 100 nM): 1.09 ± 0.054
Nc1ccn([C@@H]2O[C@H](CO)[C@@H](O)[C@@H]2O)c(=O)n1 [Cytarabine hydrochloride] (in DMSO)	1.01	0.968	0.672	0.467	0.161	1.02 ± 0.026	1.01 ± 0.039	1.04 ± 0.04	1.08 ± 0.13	1.04 ± 0.18	0.652 ± 0.11	0.554 ± 0.099	–	–	–	–	–	–	–	–	NHEJ-attributed indel frequency ([2]; 50 nM): 1.05 ± 0.022; NHEJ-attributed indel frequency ([2]; 100 nM): 1.03 ± 0.0015; MMEJ-attributed deletion frequency ([3]; 20 nM): 0.911 ± 0.12; MMEJ-attributed deletion frequency ([3]; 50 nM): 0.897 ± 0.049; MMEJ-attributed deletion frequency ([3]; 100 nM): 1.1 ± 0.021; HDR ([4]; 20 nM): 0.71 ± 0.068; HDR ([4]; 50 nM): 0.699 ± 0.1; HDR ([4]; 100 nM): 0.625 ± 0.018
NC(=O)CC[C@@H](N)C(=O)O [D-Glutamine] (in H2O)	0.958	1.03	0.932	1.16	0.888	1.02 ± 0.029	1.03 ± 0.025	1.01 ± 0.024	0.933 ± 0.064	0.918 ± 0.092	0.985 ± 0.031	0.965 ± 0.055	–	–	–	–	–	–	–	–	NHEJ-attributed indel frequency ([2]; 50 nM): 1.03 ± 0.016; NHEJ-attributed indel frequency ([2]; 100 nM): 1.02 ± 0.028; MMEJ-attributed deletion frequency ([3]; 20 nM): 0.971 ± 0.055; MMEJ-attributed deletion frequency ([3]; 50 nM): 0.874 ± 0.034; MMEJ-attributed deletion frequency ([3]; 100 nM): 0.887 ± 0.17; HDR ([4]; 20 nM): 0.953 ± 0.047; HDR ([4]; 50 nM): 0.985 ± 0.033; HDR ([4]; 100 nM): 0.9265 ± 0.0046
O[C@@H]1[C@H](O)[C@H](O)CO[C@H]1O [D-Ribose] (in DMSO)	–	–	–	1.06	1.16	–	0.9958 ± 0.0022	0.999 ± 0.01	0.939 ± 0.061	1.02 ± 0.1	1.13 ± 0.04	1.01 ± 0.06	1.1	1.04	1 ± 0.012	0.9861 ± 0.0075	1.012 ± 0.0071	1.02 ± 0.16	1.05 ± 0.025	1.06 ± 0.05	cell survival ([1]; 1000 nM): 1.06; NHEJ-attributed indel frequency ([2]; 1000 nM): 0.979 ± 0.013; MMEJ-attributed deletion frequency ([3]; 1000 nM): 0.965 ± 0.026; HDR ([4]; 1000 nM): 1.13 ± 0.075
O=C1CN(/N=C/c2ccc(-c3ccc([N+](=O)[O-])cc3)o2)C(=O)N1 [Dantrolene, sodium salt] (in DMSO)	–	–	–	–	–	–	–	–	–	–	–	–	0.934	1.39	0.941 ± 0.052	0.9996 ± 0.0056	1.09 ± 0.25	0.966 ± 0.099	1.04 ± 0.091	0.873 ± 0.12	cell survival ([1]; 10000 nM): 1.14; cell survival ([1]; 20000 nM): 1.33; cell survival ([1]; 50000 nM): 1.33; NHEJ-attributed indel frequency ([2]; 10000 nM): 1.06 ± 0.0076; NHEJ-attributed indel frequency ([2]; 20000 nM): 1.199 ± 0.0027; NHEJ-attributed indel frequency ([2]; 50000 nM): 1.24 ± 0.034; MMEJ-attributed deletion frequency ([3]; 10000 nM): 0.9399 ± 0.0032; MMEJ-attributed deletion frequency ([3]; 20000 nM): 0.997 ± 0.048; MMEJ-attributed deletion frequency ([3]; 50000 nM): 0.979 ± 0.13; HDR ([4]; 10000 nM): 0.851 ± 0.068; HDR ([4]; 20000 nM): 0.547 ± 0.039; HDR ([4]; 50000 nM): 0.508 ± 0.039
CCCCc1oc2ccc(NS(C)(=O)=O)cc2c1C(=O)c1ccc(OCCCN(CCCC)CCCC)cc1 [Dronedarone HCl] (in DMSO)	–	–	–	1.15	1.01	–	0.991 ± 0.011	1.04 ± 0.043	0.537 ± 0.76	0.463 ± 0.65	0.891 ± 0.2	0.835 ± 0.2	0.521	0.261	0.958 ± 0.093	1.06 ± 0.092	0.923 ± 0.16	1.18 ± 0.34	0.513 ± 0.071	0.556 ± 0.012	cell survival ([1]; 1000 nM): 0.696; NHEJ-attributed indel frequency ([2]; 1000 nM): 1.01 ± 0.013; MMEJ-attributed deletion frequency ([3]; 1000 nM): 0.895 ± 0.18; HDR ([4]; 1000 nM): 0.734 ± 0.051
